Reference: ChEMBL document CHEMBL1125697, “Synthesis and pharmacological examination of 1-(3-methoxy-4-methylphenyl)-2-aminopropane and 5-methoxy-6-methyl-2-aminoindan: similarities to 3,4-(methylenedioxy)methamphetamine (MDMA)” (J Med Chem, 1991)
Where “and” joins values, the source holds several entries; their conditions need not be identical. Equal values may be shown once.

Columns and labels:
Rattus norvegicus [1] = species: Rattus norvegicus; assay: Effective dose was evaluated for drug discrimination in I-trained rats; assay type: functional
Rattus norvegicus [2] = assay: Momoamine and metabolic levels observed 1 week following acute dosing against at a dose of 20 mg/kg Hippocampus NE; assay type: ADME, organism-based; design: dose 20 mg/kg; conditions: in vivo, 168 h
Rattus norvegicus [3] = assay: Effective dose was evaluated for drug discrimination in S-trained rats, when given at a dose of 0.25 umol/kg; assay type: functional
Rattus norvegicus [4] = assay: Momoamine and metabolic levels observed 1 week following acute dosing against at a dose of 20 mg/kg Frontal cortex DOPAC; assay type: ADME, organism-based; design: dose 20 mg/kg; conditions: in vivo, 168 h
Rattus norvegicus [5] = assay: Percentage of non disrupted rats that selected the drug lever, when given at a dose of 2.00 mg/kg; assay type: functional
Rattus norvegicus [6] = assay: Momoamine and metabolic levels observed at 3 hr postdrug against at a dose of 20 mg/kg Frontal cortex NE; assay type: ADME, organism-based; design: dose 20 mg/kg; conditions: in vivo
[7] = molecular target: Sodium-dependent serotonin transporter (Rattus norvegicus) (UniProt P31652); assay: Number of uptake sites for [3H]paroxetine receptor binding after sub-acute dosing against Frontal cortex; assay type: tissue-based
Rattus norvegicus [8] = assay: Momoamine and metabolic levels observed 2 weeks following sub-acute dosing against Hippocampus NE; assay type: ADME, organism-based; conditions: in vivo, 336 h
Rattus norvegicus [9] = assay: Percentage of non disrupted rats that selected the drug lever, when given at a dose of 1.00 mg/kg; assay type: functional
Rattus norvegicus [10] = assay: Momoamine and metabolic levels observed 1 week following acute dosing at a dose of 10 mg/kg Frontal cortex DA; assay type: ADME, organism-based; design: dose 10 mg/kg; conditions: in vivo, 168 h
Rattus norvegicus [11] = species: Rattus norvegicus; assay: Compound was evaluated for the uptake inhibition of [3H]-5-HT in rats; assay type: functional
Rattus norvegicus [12] = assay: Momoamine and metabolic levels observed 1 week following acute dosing against at a dose of 20 mg/kg Frontal cortex 5-HIAA; assay type: ADME, organism-based; design: dose 20 mg/kg; conditions: in vivo, 168 h
Rattus norvegicus [13] = assay: Momoamine and metabolic levels observed 1 week following acute dosing against at a dose of 20 mg/kg Hippocampus 5-HIAA; assay type: ADME, organism-based; design: dose 20 mg/kg; conditions: in vivo, 168 h
Rattus norvegicus [14] = assay: Momoamine and metabolic levels observed 1 week following acute dosing at a dose of 10 mg/kg Frontal cortex NE; assay type: ADME, organism-based; design: dose 10 mg/kg; conditions: in vivo, 168 h
Rattus norvegicus [15] = assay: Momoamine and metabolic levels observed 1 week following acute dosing at a dose of 10 mg/kg Frontal cortex DOPAC; assay type: ADME, organism-based; design: dose 10 mg/kg; conditions: in vivo, 168 h
Rattus norvegicus [16] = assay: Momoamine and metabolic levels observed 1 week following acute dosing against at a dose of 20 mg/kg Frontal cortex NE; assay type: ADME, organism-based; design: dose 20 mg/kg; conditions: in vivo, 168 h
Rattus norvegicus [17] = assay: Momoamine and metabolic levels observed 2 weeks following sub-acute dosing against Frontal cortex DOPAC; assay type: ADME, organism-based; conditions: in vivo, 336 h
Rattus norvegicus [18] = assay: Momoamine and metabolic levels observed 2 weeks following sub-acute dosing against Frontal cortex HVA; assay type: ADME, organism-based; conditions: in vivo, 336 h
Rattus norvegicus [19] = assay: Momoamine and metabolic levels observed 2 weeks following sub-acute dosing against Frontal cortex 5-HIAA; assay type: ADME, organism-based; conditions: in vivo, 336 h
Rattus norvegicus [20] = assay: Momoamine and metabolic levels observed 2 weeks following sub-acute dosing against Hippocampus 5-HIAA; assay type: ADME, organism-based; conditions: in vivo, 336 h
Rattus norvegicus [21] = assay: Momoamine and metabolic levels observed at 3 hr postdrug against at a dose of 20 mg/kg Hippocampus 5-HIAA; assay type: ADME, organism-based; design: dose 20 mg/kg; conditions: in vivo
Rattus norvegicus [22] = assay: Momoamine and metabolic levels observed 2 weeks following sub-acute dosing against Hippocampus 5-HT; assay type: ADME, organism-based; conditions: in vivo, 336 h
Rattus norvegicus [23] = assay: Effective dose was evaluated for drug discrimination in S-trained rats, when given at a dose of 0.25 mg/kg; assay type: functional
Rattus norvegicus [24] = assay: Momoamine and metabolic levels observed 1 week following acute dosing against at a dose of 10 mg/kg Hippocampus NE; assay type: ADME, organism-based; design: dose 10 mg/kg; conditions: in vivo, 168 h
Rattus norvegicus [25] = assay: Momoamine and metabolic levels observed 2 weeks following sub-acute dosing against Frontal cortex DA; assay type: ADME, organism-based; conditions: in vivo, 336 h
Rattus norvegicus [26] = assay: Momoamine and metabolic levels observed at 3 hr postdrug against at a dose of 20 mg/kg Frontal cortex 5-HT; assay type: ADME, organism-based; design: dose 20 mg/kg; conditions: in vivo
Rattus norvegicus [27] = assay: Momoamine and metabolic levels observed 1 week following acute dosing against at a dose of 20 mg/kg Frontal cortex 5-HT; assay type: ADME, organism-based; design: dose 20 mg/kg; conditions: in vivo, 168 h
Rattus norvegicus [28] = assay: Momoamine and metabolic levels observed at 3 hr postdrug against at a dose of 20 mg/kg Frontal cortex 5-HIAA; assay type: ADME, organism-based; design: dose 20 mg/kg; conditions: in vivo
Rattus norvegicus [29] = assay: Momoamine and metabolic levels observed at 3 hr postdrug against at a dose of 20 mg/kg Frontal cortex HVA; assay type: ADME, organism-based; design: dose 20 mg/kg; conditions: in vivo
Rattus norvegicus [30] = assay: Momoamine and metabolic levels observed 1 week following acute dosing against at a dose of 20 mg/kg Frontal cortex HVA; assay type: ADME, organism-based; design: dose 20 mg/kg; conditions: in vivo, 168 h
Rattus norvegicus [31] = assay: Percentage of non disrupted rats that selected the drug lever, when given at a dose of 0.25 mg/kg; assay type: functional
Rattus norvegicus [32] = assay: Percentage of non disrupted rats that selected the drug lever, when given at a dose of 1.00 mg/kg in S-Amphetamine-Trained rats; assay type: functional
Rattus norvegicus [33] = assay: Effective dose was evaluated for drug discrimination in I-trained rats, when given at a dose of 0.25 mg/kg; assay type: functional; conditions: Rattus norvegicus; read-out: ED50
Rattus norvegicus [34] = assay: Percentage of non disrupted rats that selected the drug lever, when given at a dose of 2.00 mg/kg in LSD-Trained rats; assay type: functional
Rattus norvegicus [35] = assay: Percentage of non disrupted rats that selected the drug lever, when given at a dose of 0.5 mg/kg in S-Amphetamine-Trained rats; assay type: functional
Rattus norvegicus [36] = assay: Momoamine and metabolic levels observed 1 week following acute dosing against at a dose of 20 mg/kg Frontal cortex DA; assay type: ADME, organism-based; design: dose 20 mg/kg; conditions: in vivo, 168 h
Rattus norvegicus [37] = assay: Momoamine and metabolic levels observed at 3 h postdrug against at a dose of 20 mg/kg Frontal cortex DOPAC; assay type: ADME, organism-based; design: dose 20 mg/kg; conditions: in vivo
Rattus norvegicus [38] = assay: Percentage of non disrupted rats that selected the drug lever, when given at a dose of 0.25 mg/kg in LSD-Trained rats; assay type: functional
Rattus norvegicus [39] = assay: Momoamine and metabolic levels observed 1 week following acute dosing against at a dose of 20 mg/kg Hippocampus 5-HT; assay type: ADME, organism-based; design: dose 20 mg/kg; conditions: in vivo, 168 h
Rattus norvegicus [40] = assay: Momoamine and metabolic levels observed 1 week following acute dosing at a dose of 10 mg/kg Frontal cortex HVA; assay type: ADME, organism-based; design: dose 10 mg/kg; conditions: in vivo, 168 h
[41] = molecular target: Sodium-dependent serotonin transporter (Rattus norvegicus) (UniProt P31652); assay: Number of uptake sites for [3H]paroxetine receptor binding after sub-acute dosing against Hippocampus
Rattus norvegicus [42] = assay: Momoamine and metabolic levels observed 1 week following acute dosing at a dose of 10 mg/kg Frontal cortex 5-HT; assay type: ADME, organism-based; design: dose 10 mg/kg; conditions: in vivo, 168 h
Rattus norvegicus [43] = assay: Momoamine and metabolic levels observed 1 week following acute dosing at a dose of 10 mg/kg Frontal cortex 5-HIAA; assay type: ADME, organism-based; design: dose 10 mg/kg; conditions: in vivo, 168 h
Rattus norvegicus [44] = assay: Momoamine and metabolic levels observed 2 weeks following sub-acute dosing against Frontal cortex 5-HT; assay type: ADME, organism-based; conditions: in vivo, 336 h
Rattus norvegicus [45] = assay: Momoamine and metabolic levels observed 1 week following acute dosing at a dose of 10 mg/kg Hippocampus 5-HIAA; assay type: ADME, organism-based; design: dose 10 mg/kg; conditions: in vivo, 168 h
Rattus norvegicus [46] = assay: Momoamine and metabolic levels observed 2 weeks following sub-acute dosing against Frontal cortex NE; assay type: ADME, organism-based; conditions: in vivo, 336 h
Rattus norvegicus [47] = assay: Percentage of non disrupted rats that selected the drug lever, when given at a dose of 0.25 mg/kg in S-Amphetamine-Trained rats; assay type: functional
Rattus norvegicus [48] = assay: Momoamine and metabolic levels observed 1 week following acute dosing against at a dose of 10 mg/kg Hippocampus 5-HT; assay type: ADME, organism-based; design: dose 10 mg/kg; conditions: in vivo, 168 h
Rattus norvegicus [49] = assay: Percentage of non disrupted rats that selected the drug lever, when given at a dose of 0.5 mg/kg; assay type: functional
Rattus norvegicus [50] = assay: Momoamine and metabolic levels observed at 3 hr postdrug against at a dose of 20 mg/kg Hippocampus NE; assay type: ADME, organism-based; design: dose 20 mg/kg; conditions: in vivo
Rattus norvegicus [51] = assay: Effective dose was evaluated for drug discrimination in I-trained rats, when given at a dose of 1.16 micro mol/kg; assay type: functional
Rattus norvegicus [52] = assay: Percentage of non disrupted rats that selected the drug lever, when given at a dose of 0.50 mg/kg in LSD-Trained rats; assay type: functional; conditions: dose 0.5 mg/kg
Rattus norvegicus [53] = assay: Momoamine and metabolic levels observed at 3 hr postdrug against at a dose of 20 mg/kg Frontal cortex DA; assay type: ADME, organism-based; design: dose 20 mg/kg; conditions: in vivo
Rattus norvegicus [54] = assay: Percentage of non disrupted rats that selected the drug lever, when given at a dose of 0.75 mg/kg; assay type: functional

Chain of Sodium-dependent serotonin transporter (Rattus norvegicus) (P31652 whole entry): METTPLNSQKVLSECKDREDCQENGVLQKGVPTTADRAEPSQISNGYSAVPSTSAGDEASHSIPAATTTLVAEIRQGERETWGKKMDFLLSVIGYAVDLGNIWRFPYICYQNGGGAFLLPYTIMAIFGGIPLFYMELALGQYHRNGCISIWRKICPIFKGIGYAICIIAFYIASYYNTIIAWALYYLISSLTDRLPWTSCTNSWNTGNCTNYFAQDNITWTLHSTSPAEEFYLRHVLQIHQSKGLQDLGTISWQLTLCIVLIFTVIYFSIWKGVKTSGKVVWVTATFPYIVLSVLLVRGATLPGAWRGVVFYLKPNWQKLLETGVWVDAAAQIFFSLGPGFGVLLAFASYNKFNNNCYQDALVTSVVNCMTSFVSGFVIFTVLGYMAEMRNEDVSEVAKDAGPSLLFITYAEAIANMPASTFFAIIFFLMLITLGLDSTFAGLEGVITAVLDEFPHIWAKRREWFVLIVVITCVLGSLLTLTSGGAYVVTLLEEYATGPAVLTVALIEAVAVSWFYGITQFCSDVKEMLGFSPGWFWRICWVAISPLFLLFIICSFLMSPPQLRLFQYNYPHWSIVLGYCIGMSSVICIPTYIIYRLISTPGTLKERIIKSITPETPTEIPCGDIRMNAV

## CCN(CC)C(=O)[C@@H]1C=C2c3cccc4[nH]cc(c34)C[C@H]2N(C)C1 [LYSERGIDE]
Rattus norvegicus [1]
  ED50: 0.025 mg/kg and 0.058 µmol/kg

## COc1cc(CC(C)N)ccc1C (centres undefined)
Rattus norvegicus [2]
  Metabolite level: 578
Rattus norvegicus [3]
  ED50: 2.16 µmol/kg
Rattus norvegicus [4]
  Metabolite level: 45
Rattus norvegicus [5]
  SDL: 100%
Rattus norvegicus [6]
  Metabolite level: 585
[7]
  No. of uptake sites: 12.3
Rattus norvegicus [8]
  Metabolite level: 724
Rattus norvegicus [9]
  SDL: 63%
Rattus norvegicus [10]
  Metabolite level: 88
Rattus norvegicus [11]
  IC50: 0.136 µM
Rattus norvegicus [12]
  Metabolite level: 229
Rattus norvegicus [13]
  Metabolite level: 430
Rattus norvegicus [14]
  Metabolite level: 394
Rattus norvegicus [15]
  Metabolite level: 39
Rattus norvegicus [16]
  Metabolite level: 487
Rattus norvegicus [17]
  Metabolite level: 74
Rattus norvegicus [18]
  Metabolite level: 62
Rattus norvegicus [19]
  Metabolite level: 253
Rattus norvegicus [20]
  Metabolite level: 503
Rattus norvegicus [21]
  Metabolite level: 260
Rattus norvegicus [22]
  Metabolite level: 392
Rattus norvegicus [23]
  ED50: 0.47 mg/kg
Rattus norvegicus [24]
  Metabolite level: 620
Rattus norvegicus [25]
  Metabolite level: 83
Rattus norvegicus [26]
  Metabolite level: 212
Rattus norvegicus [27]
  Metabolite level: 316
Rattus norvegicus [28]
  Metabolite level: 139
Rattus norvegicus [29]
  Metabolite level: 138
Rattus norvegicus [30]
  Metabolite level: 85
Rattus norvegicus [31]
  SDL: 11%
Rattus norvegicus [32]
  SDL: 0%
Rattus norvegicus [33]
  ED50: 0.59 mg/kg
Rattus norvegicus [34]
  SDL: 75%
Rattus norvegicus [35]
  SDL: 0%
Rattus norvegicus [36]
  Metabolite level: 86
Rattus norvegicus [37]
  Metabolite level: 46
Rattus norvegicus [38]
  SDL: 0%
Rattus norvegicus [39]
  Metabolite level: 431
Rattus norvegicus [40]
  Metabolite level: 70
[41]
  No. of uptake sites: 14.9
Rattus norvegicus [42]
  Metabolite level: 281
Rattus norvegicus [43]
  Metabolite level: 233
Rattus norvegicus [44]
  Metabolite level: 411
Rattus norvegicus [45]
  Metabolite level: 460
Rattus norvegicus [46]
  Metabolite level: 573
Rattus norvegicus [47]
  SDL: 0%
Rattus norvegicus [48]
  Metabolite level: 255
Rattus norvegicus [49]
  SDL: 50%
Rattus norvegicus [50]
  Metabolite level: 641
Rattus norvegicus [51]
  ED50: 2.74 µmol/kg
Rattus norvegicus [52]
  SDL: 38%
Rattus norvegicus [53]
  Metabolite level: 120

## COc1cc(C[C@H](C)N)ccc1C
Rattus norvegicus [11]
  IC50: 0.099 µM
Rattus norvegicus [54]
  SDL: 100%
Rattus norvegicus [31]
  SDL: 17%
Rattus norvegicus [33]
  ED50: 0.46 mg/kg
Rattus norvegicus [49]
  SDL: 33%
Rattus norvegicus [51]
  ED50: 2.14 µmol/kg
